Source: ChEMBL document CHEMBL1121748, “Antimycotic imidazoles. 5. Synthesis and antimycotic properties of 1-[[2-aryl-4-(arylalkyl)-1,3-dioxolan-2-yl]methyl]-1H-imidazoles” (1981)

How the values were obtained:
Aspergillus fumigatus = test: Antifungal activity against Aspergillus fumigatus; type: functional
[1] = system: Staphylococcus haemolyticus; test: Antibacterial against Staphylococcus hemolyticus; type: functional
Trichophyton benhamiae = test: Antifungal activity against Trichophyton mentagrophytes; type: functional, trychophyton mentagrophytes
Sporothrix schenckii = test: Antifungal activity against Sporothrix schenck ii; type: functional
Trichophyton rubrum = test: Antifungal activity against Trichophyton rubrum; type: functional
[2] = Ratio of animals cured to that of animals infected, tested in vivo for antifungal activity against cutaneous candidosis in guinea pig; 1/2; type: functional
Saprolegnia = test: Antifungal activity against Saprolegnia species; type: functional
Candida tropicalis = test: Antifungal activity against Candida tropicalis; type: functional
Streptococcus pyogenes = test: Antibacterial activity against Streptococcus pyogenes; type: functional
Microsporum canis = test: Antifungal activity against Microsporum canis; type: functional
Mucor = test: Antifungal activity against Mucor species; type: functional
[3] = system: Erysipelothrix rhusiopathiae; test: Antibacterial activity against Erysipelothrix insidiosa; type: functional
Phialophora verrucosa = test: Antifungal activity against Phialophora verrucosa; type: functional
Candida albicans = test: Antifungal activity against Candida albicans; type: functional
Cryptococcus neoformans = test: Antifungal activity against Cryptococcus neoformans; type: functional
[4] = Ratio of animals cured to that of animals infected, tested in vivo for antifungal activity against vaginal candidosis in rat; 2/2
[5] = Ratio of animals cured to that of animals infected, tested in vivo for antifungal activity against cutaneous candidosis in guinea pig; 2/2; type: functional; further: test concentration or dose not given here
[6] = Ratio of animals cured to that of animals […], Tested in vivo for antifungal activity against vaginal candidosis in rat; 0/2; type: functional
[7] = Ratio of animals cured to that of animals […], Tested in vivo for antifungal activity against vaginal candidosis in rat; 1/2; type: functional
[8] = Ratio of animals cured to that of animals infected, tested in vivo for antifungal activity against vaginal candidosis in rat; 0/2; further: test concentration or dose not given here
[9] = Ratio of animals cured to that of animals infected, tested in vivo for antifungal activity against cutaneous candidosis in guinea pig; 0/2; type: functional; further: test concentration or dose not given here
[10] = Ratio of animals cured to that of animals infected, tested in vivo for antifungal activity against vaginal candidosis in rat; 2/4

Clc1ccc(C2COC(Cn3ccnc3)(c3ccc(Cl)cc3Cl)O2)cc1 (stereo not drawn)
Inhibition (Aspergillus fumigatus): <1 µg/mL | Inhibition [1]: 10 µg/mL | Inhibition (Trichophyton benhamiae): <1 µg/mL | Inhibition (Sporothrix schenckii): 10 µg/mL | Inhibition (Trichophyton rubrum): <1 µg/mL | Ratio [2]: 1 | Inhibition (Saprolegnia): 100 µg/mL | Inhibition (Candida tropicalis): 10 µg/mL | Inhibition (Streptococcus pyogenes): 1 µg/mL | Inhibition (Microsporum canis): <1 µg/mL | Inhibition (Mucor): 10 µg/mL | Inhibition [3]: 1 µg/mL | Inhibition (Phialophora verrucosa): 100 µg/mL | Inhibition (Candida albicans): 100 µg/mL | Inhibition (Cryptococcus neoformans): <1 µg/mL

Clc1ccc(C2COC(Cn3ccnc3)(c3ccc(Cl)cc3Cl)O2)c(Cl)c1 (stereo not drawn)
Inhibition (Aspergillus fumigatus): <1 µg/mL | Inhibition [1]: 10 µg/mL | Inhibition (Trichophyton benhamiae): <1 µg/mL | Inhibition (Sporothrix schenckii): 10 µg/mL | Inhibition (Trichophyton rubrum): <1 µg/mL | Ratio [4]: 2 | Inhibition (Saprolegnia): 100 µg/mL | Inhibition (Candida tropicalis): >100 µg/mL | Inhibition (Streptococcus pyogenes): <1 µg/mL | Inhibition (Microsporum canis): 10 µg/mL | Inhibition (Mucor): 10 µg/mL | Inhibition [3]: <1 µg/mL | Inhibition (Phialophora verrucosa): 100 µg/mL | Inhibition (Candida albicans): >100 µg/mL | Inhibition (Cryptococcus neoformans): <1 µg/mL

Fc1ccc(C2COC(Cn3ccnc3)(c3ccc(Cl)cc3)O2)cc1 (stereo not drawn)
Ratio [5]: 1 | Inhibition (Aspergillus fumigatus): <1 µg/mL | Ratio [6]: 0 | Inhibition [1]: >100 µg/mL | Inhibition (Trichophyton benhamiae): <1 µg/mL | Inhibition (Sporothrix schenckii): 10 µg/mL | Inhibition (Trichophyton rubrum): <1 µg/mL | Inhibition (Saprolegnia): 100 µg/mL | Inhibition (Candida tropicalis): 100 µg/mL | Inhibition (Streptococcus pyogenes): 10 µg/mL | Inhibition (Microsporum canis): <1 µg/mL | Inhibition (Mucor): 10 µg/mL | Inhibition [3]: 100 µg/mL | Inhibition (Phialophora verrucosa): 100 µg/mL | Inhibition (Candida albicans): 100 µg/mL | Inhibition (Cryptococcus neoformans): 10 µg/mL

Clc1ccc(C2(Cn3ccnc3)OCC(c3ccccc3Cl)O2)cc1 (stereo not drawn)
Ratio [5]: 2 | Inhibition (Aspergillus fumigatus): 100 µg/mL | Inhibition [1]: 10 µg/mL | Inhibition (Trichophyton benhamiae): <1 µg/mL | Inhibition (Sporothrix schenckii): >1 µg/mL | Inhibition (Trichophyton rubrum): <1 µg/mL | Inhibition (Saprolegnia): 10 µg/mL | Inhibition (Candida tropicalis): >100 µg/mL | Inhibition (Streptococcus pyogenes): 1 µg/mL | Inhibition (Microsporum canis): 10 µg/mL | Inhibition (Mucor): 100 µg/mL | Inhibition [3]: 1 µg/mL | Ratio [7]: 1 | Inhibition (Phialophora verrucosa): 100 µg/mL | Inhibition (Candida albicans): >100 µg/mL | Inhibition (Cryptococcus neoformans): 10 µg/mL

Clc1ccc(C2(Cn3ccnc3)OCC(Cc3ccc(-c4ccccc4)cc3)O2)c(Cl)c1 (stereo not drawn)
Inhibition (Aspergillus fumigatus): 10 µg/mL | Ratio [6]: 0 | Inhibition [1]: 10 µg/mL | Inhibition (Trichophyton benhamiae): <1 µg/mL | Inhibition (Sporothrix schenckii): 100 µg/mL | Inhibition (Trichophyton rubrum): <1 µg/mL | Inhibition (Saprolegnia): 100 µg/mL | Inhibition (Candida tropicalis): >100 µg/mL | Inhibition (Streptococcus pyogenes): 1 µg/mL | Inhibition (Microsporum canis): 10 µg/mL | Inhibition (Mucor): >100 µg/mL | Inhibition [3]: 1 µg/mL | Inhibition (Phialophora verrucosa): >100 µg/mL | Inhibition (Candida albicans): >100 µg/mL | Inhibition (Cryptococcus neoformans): 100 µg/mL

Clc1ccc(CC2COC(Cn3ccnc3)(c3ccc(Cl)cc3Cl)O2)cc1 (stereo not drawn)
Ratio [5]: 2 | Inhibition (Aspergillus fumigatus): 10 µg/mL | Inhibition [1]: 10 µg/mL | Inhibition (Trichophyton benhamiae): <1 µg/mL | Inhibition (Sporothrix schenckii): 10 µg/mL | Inhibition (Trichophyton rubrum): <1 µg/mL | Ratio [8]: 0 | Inhibition (Saprolegnia): 100 µg/mL | Inhibition (Candida tropicalis): 10 µg/mL | Inhibition (Streptococcus pyogenes): 100 µg/mL | Inhibition (Microsporum canis): <1 µg/mL | Inhibition (Mucor): 10 µg/mL | Inhibition [3]: <1 µg/mL | Inhibition (Phialophora verrucosa): 100 µg/mL | Inhibition (Candida albicans): 10 µg/mL | Inhibition (Cryptococcus neoformans): 1 µg/mL

Clc1ccc(C2(Cn3ccnc3)OCC(c3ccc(Br)cc3)O2)cc1 (stereo not drawn)
Inhibition (Aspergillus fumigatus): <1 µg/mL | Inhibition [1]: 10 µg/mL | Inhibition (Trichophyton benhamiae): <1 µg/mL | Inhibition (Sporothrix schenckii): 10 µg/mL | Inhibition (Trichophyton rubrum): <1 µg/mL | Ratio [9]: 0 | Ratio [4]: 2 | Inhibition (Saprolegnia): <1 µg/mL | Inhibition (Candida tropicalis): 10 µg/mL | Inhibition (Streptococcus pyogenes): <1 µg/mL | Inhibition (Microsporum canis): <1 µg/mL | Inhibition (Mucor): 10 µg/mL | Inhibition [3]: <1 µg/mL | Inhibition (Phialophora verrucosa): 100 µg/mL | Inhibition (Candida albicans): 10 µg/mL | Inhibition (Cryptococcus neoformans): <1 µg/mL

Clc1ccc(CCC2COC(Cn3ccnc3)(c3ccc(Cl)cc3Cl)O2)cc1 (stereo not drawn)
Inhibition (Aspergillus fumigatus): 10 µg/mL | Inhibition [1]: 10 µg/mL | Inhibition (Trichophyton benhamiae): <1 µg/mL | Inhibition (Sporothrix schenckii): 1 µg/mL | Inhibition (Trichophyton rubrum): 1 µg/mL | Ratio [9]: 0 | Inhibition (Saprolegnia): 100 µg/mL | Inhibition (Candida tropicalis): 10 µg/mL | Inhibition (Streptococcus pyogenes): <1 µg/mL | Inhibition (Microsporum canis): 1 µg/mL | Inhibition (Mucor): 10 µg/mL | Inhibition [3]: <1 µg/mL | Ratio [10]: 2 | Inhibition (Phialophora verrucosa): 100 µg/mL | Inhibition (Candida albicans): 10 µg/mL | Inhibition (Cryptococcus neoformans): <1 µg/mL

Clc1ccc(C2(Cn3ccnc3)OCC(Cc3ccccc3)O2)c(Cl)c1 (stereo not drawn)
Ratio [5]: 2 | Inhibition (Aspergillus fumigatus): <1 µg/mL | Ratio [6]: 0 | Inhibition [1]: 10 µg/mL | Inhibition (Trichophyton benhamiae): <1 µg/mL | Inhibition (Sporothrix schenckii): 10 µg/mL | Inhibition (Trichophyton rubrum): <1 µg/mL | Inhibition (Saprolegnia): 10 µg/mL | Inhibition (Candida tropicalis): 10 µg/mL | Inhibition (Streptococcus pyogenes): 10 µg/mL | Inhibition (Microsporum canis): <1 µg/mL | Inhibition (Mucor): 10 µg/mL | Inhibition [3]: <1 µg/mL | Inhibition (Phialophora verrucosa): 100 µg/mL | Inhibition (Candida albicans): 100 µg/mL | Inhibition (Cryptococcus neoformans): <1 µg/mL

Cc1ccc(C2(Cn3ccnc3)OCC(c3ccccc3Cl)O2)cc1 (stereo not drawn)
Inhibition (Aspergillus fumigatus): 100 µg/mL | Inhibition [1]: 100 µg/mL | Inhibition (Trichophyton benhamiae): <1 µg/mL | Inhibition (Sporothrix schenckii): 10 µg/mL | Inhibition (Trichophyton rubrum): <1 µg/mL | Ratio [9]: 0 | Inhibition (Saprolegnia): 100 µg/mL | Inhibition (Candida tropicalis): >100 µg/mL | Inhibition (Streptococcus pyogenes): <1 µg/mL | Inhibition (Microsporum canis): 10 µg/mL | Inhibition (Mucor): 100 µg/mL | Inhibition [3]: 1 µg/mL | Ratio [7]: 0.5 | Inhibition (Phialophora verrucosa): 100 µg/mL | Inhibition (Candida albicans): 100 µg/mL | Inhibition (Cryptococcus neoformans): 100 µg/mL

Fc1ccc(C2COC(Cn3ccnc3)(c3ccc(Br)cc3)O2)cc1 (stereo not drawn)
Inhibition (Aspergillus fumigatus): <1 µg/mL | Inhibition [1]: 100 µg/mL | Inhibition (Trichophyton benhamiae): <1 µg/mL | Inhibition (Sporothrix schenckii): 10 µg/mL | Inhibition (Trichophyton rubrum): <1 µg/mL | Ratio [2]: 0.5 | Inhibition (Saprolegnia): 100 µg/mL | Inhibition (Candida tropicalis): 100 µg/mL | Inhibition (Streptococcus pyogenes): <1 µg/mL | Inhibition (Microsporum canis): <1 µg/mL | Inhibition (Mucor): <1 µg/mL | Inhibition [3]: 10 µg/mL | Ratio [10]: 2 | Inhibition (Phialophora verrucosa): 100 µg/mL | Inhibition (Candida albicans): 100 µg/mL | Inhibition (Cryptococcus neoformans): 10 µg/mL
